Experimental data published in publication PMC12429564.

Experiments:
[1] = system: ACCO GR20hh’ (DNA, aptamer) ACGCACCATTTGTTTAATATGTTTTTTAATTCCCCTTGTGGTGTGTTTCATTTAGGACCAACACAA/TTGTGTTGGTCCTAAATG; test: fluorescence quenching titration, Hill fit; conditions: 50 mM NaCl, 10 mM KCl, 5 mM MgCl2; Tris-HCl pH 7.4; 1.5 μM DOX titrated with nucleic acid; apparent; Hill n = 1.58 ± 0.09
[2] = system: U31 (DNA, aptamer) ATCCAGAGTGACGCAGCATTTGTTTAATATGTTTTTTAATTCCCCTTGTGGTGTGTTGTGGACACGGTGGCTTAGT; test: fluorescence quenching titration, Hill fit; conditions: 50 mM NaCl, 10 mM KCl, 5 mM MgCl2; Tris-HCl pH 7.4; 1.5 μM DOX titrated with nucleic acid; apparent; Hill n = 0.95 ± 0.04
[3] = system: GR20 (DNA, aptamer) ACGCACCATTTGTTTAATATGTTTTTTAATTCCCCTTGTGGTGTGT; test: fluorescence quenching titration, Hill fit; conditions: 50 mM NaCl, 10 mM KCl, 5 mM MgCl2; Tris-HCl pH 7.4; 1.5 μM DOX titrated with nucleic acid; apparent; Hill n = 1.13 ± 0.03
[4] = system: hh’ (DNA, duplex) CATTTAGGACCAACACAA/TTGTGTTGGTCCTAAATG; test: fluorescence quenching titration, Hill fit; conditions: 50 mM NaCl, 10 mM KCl, 5 mM MgCl2; Tris-HCl pH 7.4; 1.5 μM DOX titrated with nucleic acid; apparent; Hill n = 0.96 ± 0.03
[5] = target: T1, EGFR* (recombinant extracellular domain of human EGFR) (human, UniProt P00533 25-645); test: BLI; kon 3.7e5 M-1 s-1; koff 40e-4 s-1; BLI buffer and temperature not in the material; aptamers folded at 1 uM in PBS with 5 mM MgCl2 (95 C 5 min, slow cooling); ACCO assembled in PBS + 5 mM MgCl2 or Tris-HCl pH 7.4, 50 mM NaCl, 10 mM KCl, 5 mM MgCl2; conditions: protein: recombinant; 18 bp duplex of S5 with 3' end of S3; GR20 part imperfect hairpin (predicted)
[6] = target: T1, EGFR* (recombinant extracellular domain …); test: BLI; kon 2.0e5 M-1 s-1; koff 29e-4 s-1; possibly from the authors' earlier work [36], not marked as cited in table; BLI buffer and temperature not in the material; aptamers folded at 1 uM in PBS with 5 mM MgCl2 (95 C 5 min, slow cooling); ACCO assembled in PBS + 5 mM MgCl2 or Tris-HCl pH 7.4, 50 mM NaCl, 10 mM KCl, 5 mM MgCl2; conditions: protein: recombinant; imperfect hairpins (predicted)
[7] = target: T1, EGFR* (recombinant extracellular domain …); test: BLI; kon 4.3e5 M-1 s-1; koff 61e-4 s-1; BLI buffer and temperature not in the material; aptamers folded at 1 uM in PBS with 5 mM MgCl2 (95 C 5 min, slow cooling); ACCO assembled in PBS + 5 mM MgCl2 or Tris-HCl pH 7.4, 50 mM NaCl, 10 mM KCl, 5 mM MgCl2; conditions: protein: recombinant; imperfect hairpin (predicted)

COc1cccc2c1C(=O)c1c(O)c3c(c(O)c1C2=O)C[C@@](O)(C(=O)CO)C[C@@H]3O[C@H]1C[C@H](N)[C@H](O)[C@H](C)O1
aKd [1]: 26 ± 1 nM | aKd [2]: 47 ± 3 nM | aKd [3]: 90 ± 3 nM | aKd [4]: 124 ± 3 nM

B1: ACCO GR20hh' (mixed)
DNA 1: ACGCACCATTTGTTTAATATGTTTTTTAATTCCCCTTGTGGTGTGTTTCATTTAGGACCAACACAA
DNA 2: TTGTGTTGGTCCTAAATG
Kd [5]: 10.8 ± 1.4 nM

B2: U31 (ssDNA)
DNA: ATCCAGAGTGACGCAGCATTTGTTTAATATGTTTTTTAATTCCCCTTGTGGTGTGTTGTGGACACGGTGGCTTAGT
Kd [6]: 15 ± 1.7 nM

B3: GR20 (ssDNA)
DNA: ACGCACCATTTGTTTAATATGTTTTTTAATTCCCCTTGTGGTGTGT
Kd [7]: 14.2 ± 0.5 nM
